Tests used:
[1] = Cytotoxicity against human LN229 cells assessed as concentration required for induction of cell death after 24 hrs by crystal violet staining based light microscopic analysis; type: functional, LN-229
[2] = Solubility of the compound in ethanol; type: physicochemical
[3] = Solubility of the compound in isopropanol; type: physicochemical
[4] = Solubility of the compound in DMSO; type: physicochemical
[5] = Solubility of the compound in chloroform; type: physicochemical
[6] = Solubility of the compound in trifluoroacetic acid; type: physicochemical
[7] = Solubility of the compound in CHCl3/TFA; type: physicochemical
[8] = Solubility of the compound in DMSO/TFA; type: physicochemical

With `CN1C(=O)NC(=O)C(C(=O)Nc2ccc(Cl)cc2)C1=O` (configuration not stated) the Activity [1] was 100 µg/mL.
In the case of `NC(=O)c1ccc(NC(=O)C2C(=O)NC(=O)NC2=O)cc1`, the solubility [2] is reported as “Insoluble” and the solubility [3] is reported as “Insoluble”.
Compound `CN1C(=O)C(C(=O)Nc2ccccc2-c2ccccc2)C(=O)N(C)C1=O` has an Activity [1] of 100 µg/mL.
With `O=C1NC(=O)C(C(=O)NNC(=O)Nc2ccc([N+](=O)[O-])cc2)C(=O)N1` the solubility [2] was “Insoluble”, the solubility [3] was “Insoluble” and the solubility [4] was “Insoluble”. For the same compound, the solubility [5] was “Insoluble”, the solubility [6] was “Soluble” and the solubility [7] was “Soluble”. For the same compound, the solubility [8] was “Soluble”.
`CN1C(=O)C(C(=O)Nc2ccc(Cl)c(Cl)c2)C(=O)N(C)C1=O` gave an Activity [1] of 100 µg/mL.
For `Cc1ccc(NC(=O)C2C(=O)NC(=O)NC2=O)cc1C`, the Activity [1] was 100 µg/mL, the solubility [2] was “Insoluble” and the solubility [3] was “Insoluble”.
With `CN1C(=O)C(C(=O)Nc2ccccc2O)C(=O)N(C)C1=O` the Activity [1] was 100 µg/mL.
With `O=C1NC(=O)C(C(=O)NNC(=O)Nc2ccc(Cl)c(Cl)c2)C(=O)N1` the solubility [2] was “Insoluble”, the solubility [3] was “Insoluble” and the solubility [4] was “Insoluble”. The solubility [5] was “Insoluble”, the solubility [6] was “Soluble” and the solubility [7] was “Soluble”. The solubility [8] was “Soluble”.
`CN1C(=O)C(C(=O)NNc2ccc([N+](=O)[O-])cc2)C(=O)N(C)C1=O` showed an Activity [1] of 100 µg/mL.
For `CN1C(=O)C(C(=O)Nc2ccc(-c3ccccc3)cc2)C(=O)N(C)C1=O`, the Activity [1] was 100 µg/mL.
In the case of `O=C1NC(=O)C(C(=O)Nc2ccc(C(=O)O)cc2)C(=O)N1`, the solubility [2] is reported as “Insoluble” and the solubility [3] is reported as “Insoluble”.
For `O=C(O)c1ccc(NC(=O)C2C(=O)NC(=O)N(c3ccccc3)C2=O)cc1` (configuration not stated), the Activity [1] was 100 µg/mL.
With `O=C1NC(=O)C(C(=O)Nc2cccc(O)c2)C(=O)N1` the solubility [2] was “Insoluble” and the solubility [3] was “Insoluble”.
For `CN1C(=O)NC(=O)C(C(=O)NNC(=O)Nc2ccc(F)cc2)C1=O` (configuration not stated), the solubility [2] was “Insoluble”, the solubility [3] was “Insoluble” and the solubility [4] was “Insoluble”. For the same compound, the solubility [5] was “Insoluble”, the solubility [6] was “Insoluble” and the solubility [7] was “Insoluble”. For the same compound, the solubility [8] was “Insoluble”.
With `CN1C(=O)C(C(=O)Nc2cc(Cl)ccc2Cl)C(=O)N(C)C1=O` the Activity [1] was 100 µg/mL.
With `O=C1NC(=O)N(c2ccccc2)C(=O)C1C(=O)Nc1ccccc1` (configuration not stated) the Activity [1] was 100 µg/mL.
In the case of `O=C1NC(=O)N(c2ccccc2)C(=O)C1C(=O)Nc1ccc2cc3ccccc3cc2c1` (configuration not stated), the Activity [1] is reported as 100 µg/mL.
`CN1C(=O)C(C(=O)Nc2cccc(Cl)c2Cl)C(=O)N(C)C1=O` showed an Activity [1] of 100 µg/mL.
In the case of `CN1C(=O)C(C(=O)Nc2ccc3cc4ccccc4cc3c2)C(=O)N(C)C1=O`, the Activity [1] is reported as 100 µg/mL.
For `CN1C(=O)C(C(=O)Nc2cccc3ccccc23)C(=O)N(C)C1=O`, the Activity [1] was 100 µg/mL.
With `O=C1NC(=O)C(C(=O)Nc2ccc(Br)cc2)C(=O)N1` the solubility [2] was “Insoluble” and the solubility [3] was “Insoluble”.
With `COc1cc(NC(=O)C2C(=O)NC(=O)NC2=O)cc(OC)c1OC` the Activity [1] was 100 µg/mL, the solubility [2] was “Insoluble” and the solubility [3] was “Insoluble”.
`CN1C(=O)NC(=O)C(C(=O)Nc2ccc3cc4ccccc4cc3c2)C1=O` (configuration not stated) showed an Activity [1] of 100 µg/mL.
Compound `COc1cc(NC(=O)C2C(=O)NC(=O)N(c3ccccc3)C2=O)cc(OC)c1OC` (configuration not stated) has an Activity [1] of 100 µg/mL.
For `CN1C(=O)NC(=O)C(C(=O)Nc2cccc(O)c2)C1=O` (configuration not stated), the Activity [1] was 100 µg/mL.
`O=C1NC(=O)C(C(=O)Nc2ccc3ccccc3c2)C(=O)N1` gave an Activity [1] of 100 µg/mL.
For `O=C1NC(=O)C(C(=O)NNC(=O)Nc2ccc(O)cc2)C(=O)N1`, the solubility [2] was “Insoluble”, the solubility [3] was “Insoluble” and the solubility [4] was “Insoluble”. For the same compound, the solubility [5] was “Insoluble”, the solubility [6] was “Soluble” and the solubility [7] was “Soluble”. For the same compound, the solubility [8] was “Soluble”.
In the case of `O=C1NC(=O)N(c2ccccc2)C(=O)C1C(=O)Nc1cccc2ccccc12` (configuration not stated), the Activity [1] is reported as 100 µg/mL.
For `N#Cc1ccc(NC(=O)NNC(=O)C2C(=O)NC(=O)NC2=O)cc1`, the solubility [2] was “Insoluble”, the solubility [3] was “Insoluble” and the solubility [4] was “Insoluble”. The solubility [5] was “Insoluble”, the solubility [6] was “Soluble” and the solubility [7] was “Soluble”. For the same compound, the solubility [8] was “Soluble”.
For `O=C1NC(=O)C(C(=O)NNC(=O)Nc2ccc(F)cc2)C(=O)N1`, the solubility [2] was “Insoluble”, the solubility [3] was “Insoluble” and the solubility [4] was “Insoluble”. For the same compound, the solubility [5] was “Insoluble”, the solubility [6] was “Soluble” and the solubility [7] was “Soluble”. For the same compound, the solubility [8] was “Soluble”.
Compound `CN1C(=O)C(C(=O)Nc2cccc(O)c2)C(=O)N(C)C1=O` has an Activity [1] of 100 µg/mL.
With `COc1ccc(NC(=O)C2C(=O)NC(=O)N(c3ccccc3)C2=O)cc1` (configuration not stated) the Activity [1] was 100 µg/mL.
`CN1C(=O)C(C(=O)Nc2ccc3ccccc3c2)C(=O)N(C)C1=O` gave an Activity [1] of 100 µg/mL.
`O=C1NC(=O)N(c2ccccc2)C(=O)C1C(=O)Nc1nc2ccc([N+](=O)[O-])cc2s1` (configuration not stated) showed an Activity [1] of 100 µg/mL.
Work on `O=C1NC(=O)N(c2ccccc2)C(=O)C1C(=O)Nc1ccc(Cl)cc1Cl` (configuration not stated) yielded an Activity [1] of 100 µg/mL.
For `O=C1NC(=O)C(C(=O)Nc2cccc(Cl)c2Cl)C(=O)N1`, the solubility [2] was “Insoluble” and the solubility [3] was “Insoluble”.
`COc1ccc2nc(NC(=O)C3C(=O)NC(=O)N(c4ccccc4)C3=O)sc2c1` (configuration not stated) showed an Activity [1] of 100 µg/mL.
`CN1C(=O)C(C(=O)Nc2ccc(O)cc2)C(=O)N(C)C1=O` gave an Activity [1] of 100 µg/mL.
With `O=C1NC(=O)C(C(=O)Nc2cccc(Br)c2)C(=O)N1` the Activity [1] was 100 µg/mL, the solubility [2] was “Insoluble” and the solubility [3] was “Insoluble”.
For `O=C1NC(=O)C(C(=O)NNC(=O)Nc2cccc(O)c2)C(=O)N1`, the solubility [2] was “Insoluble”, the solubility [3] was “Insoluble” and the solubility [4] was “Insoluble”. The solubility [5] was “Insoluble”, the solubility [6] was “Soluble” and the solubility [7] was “Soluble”. For the same compound, the solubility [8] was “Soluble”.
With `O=C1NC(=O)C(C(=O)Nc2ccc(Cl)cc2)C(=O)N1` the solubility [2] was “Insoluble” and the solubility [3] was “Insoluble”.
For `O=C1NC(=O)C(C(=O)Nc2cc(Cl)cc(Cl)c2)C(=O)N1`, the solubility [2] was “Insoluble” and the solubility [3] was “Insoluble”.
For `CN1C(=O)C(C(=O)NNC(=O)Nc2cccc(O)c2)C(=O)N(C)C1=O`, the solubility [2] was “Insoluble”, the solubility [3] was “Insoluble” and the solubility [4] was “Insoluble”. The solubility [5] was “Insoluble”, the solubility [6] was “Insoluble” and the solubility [7] was “Insoluble”. The solubility [8] was “Insoluble”.
In the case of `CN1C(=O)NC(=O)C(C(=O)NNC(=O)Nc2ccc(O)c([N+](=O)[O-])c2)C1=O` (configuration not stated), the solubility [2] is reported as “Insoluble”, the solubility [3] is reported as “Insoluble” and the solubility [4] is reported as “Insoluble”. The solubility [5] was “Insoluble”, the solubility [6] was “Insoluble” and the solubility [7] was “Insoluble”. For the same compound, the solubility [8] was “Insoluble”.
For `O=C(NNC(=O)C1C(=O)NC(=O)N(c2ccccc2)C1=O)Nc1ccccc1` (configuration not stated), the solubility [2] was “Insoluble”, the solubility [3] was “Insoluble” and the solubility [4] was “Insoluble”. The solubility [5] was “Insoluble”, the solubility [6] was “Insoluble” and the solubility [7] was “Insoluble”. For the same compound, the solubility [8] was “Insoluble”.
For `COc1ccc(NC(=O)C2C(=O)NC(=O)NC2=O)cc1OC`, the solubility [2] was “Insoluble” and the solubility [3] was “Insoluble”.
In the case of `O=C1NC(=O)C(C(=O)Nc2ccc([N+](=O)[O-])cc2)C(=O)N1`, the Activity [1] is reported as 100 µg/mL, the solubility [2] is reported as “Insoluble” and the solubility [3] is reported as “Insoluble”.
With `CN1C(=O)C(C(=O)Nc2ccc(C(=O)O)cc2)C(=O)N(C)C1=O` the Activity [1] was 100 µg/mL.
Compound `CN1C(=O)C(C(=O)Nc2cccc(Br)c2)C(=O)N(C)C1=O` has an Activity [1] of 100 µg/mL.
For `COc1ccc(NC(=O)C2C(=O)NC(=O)NC2=O)cc1`, the solubility [2] was “Insoluble” and the solubility [3] was “Insoluble”.
`O=C1NC(=O)N(c2ccccc2)C(=O)C1C(=O)Nc1ccc(Br)cc1` (configuration not stated) gave an Activity [1] of 100 µg/mL.
`CCOC(=O)c1ccc(NC(=O)C2C(=O)N(C)C(=O)N(C)C2=O)cc1` gave an Activity [1] of 100 µg/mL.
With `O=C1NC(=O)C(C(=O)Nc2ccc(O)cc2)C(=O)N1` the Activity [1] was 100 µg/mL, the solubility [2] was “Insoluble” and the solubility [3] was “Insoluble”.
With `O=C1NC(=O)C(C(=O)Nc2ccc(F)cc2)C(=O)N1` the solubility [2] was “Insoluble” and the solubility [3] was “Insoluble”.
In the case of `O=C1NC(=O)C(C(=O)Nc2cc(Cl)ccc2Cl)C(=O)N1`, the solubility [2] is reported as “Insoluble” and the solubility [3] is reported as “Insoluble”.
Compound `CN1C(=O)C(C(=O)Nc2ccc([N+](=O)[O-])cc2)C(=O)N(C)C1=O` has an Activity [1] of 100 µg/mL.
In the case of `O=C1NC(=O)C(C(=O)Nc2cccc([N+](=O)[O-])c2)C(=O)N1`, the solubility [2] is reported as “Insoluble” and the solubility [3] is reported as “Insoluble”.
In the case of `O=C1NC(=O)C(C(=O)Nc2ccc(Cl)cc2Cl)C(=O)N1`, the solubility [2] is reported as “Insoluble” and the solubility [3] is reported as “Insoluble”.
Compound `CN1C(=O)C(C(=O)Nc2cccc(I)c2)C(=O)N(C)C1=O` has an Activity [1] of 100 µg/mL.
Work on `O=C1NC(=O)N(c2ccccc2)C(=O)C1C(=O)Nc1ccc(I)cc1` (configuration not stated) yielded an Activity [1] of 100 µg/mL.
In the case of `O=C1NC(=O)C(C(=O)Nc2cccc3ccccc23)C(=O)N1`, the Activity [1] is reported as 100 µg/mL.
With `O=C1NC(=O)C(C(=O)Nc2ccc(I)cc2)C(=O)N1` the solubility [2] was “Insoluble” and the solubility [3] was “Insoluble”.
Compound `O=C1NC(=O)C(C(=O)Nc2ccc3cc4ccccc4cc3c2)C(=O)N1` has an Activity [1] of 100 µg/mL.
Compound `CN1C(=O)C(C(=O)Nc2ccc(Br)cc2)C(=O)N(C)C1=O` has an Activity [1] of 100 µg/mL.
With `O=C1NC(=O)C(C(=O)Nc2ccccc2)C(=O)N1` the solubility [2] was “Insoluble” and the solubility [3] was “Insoluble”.
Work on `CN1C(=O)C(C(=O)Nc2ccc(Cl)cc2Cl)C(=O)N(C)C1=O` yielded an Activity [1] of 100 µg/mL.
For `COc1ccc(NC(=O)C2C(=O)NC(=O)N(C)C2=O)cc1` (configuration not stated), the Activity [1] was 100 µg/mL.
For `CCOC(=O)c1ccc(NC(=O)C2C(=O)NC(=O)NC2=O)cc1`, the Activity [1] was 100 µg/mL, the solubility [2] was “Insoluble” and the solubility [3] was “Insoluble”.
With `O=C1NC(=O)C(C(=O)Nc2ccc(Cl)c(Cl)c2)C(=O)N1` the solubility [2] was “Insoluble” and the solubility [3] was “Insoluble”.

— ChEMBL document CHEMBL3862023, “Synthesis of N-aryl and N-arylcarbamoylamino derivatives of 1,3-diazinane-5-carboxamide and their activity against glioblastoma LN-229 cell line” (Bioorg Med Chem, 2016)
